Test results from PubChem BioAssay AID1963856 (Molecular Pharmacology Branch, DTP, NCI, 2024).

Test system: LG0567-F671-PDC KRAS tumor spheroid viability
Experiment: Anticancer human tumor LG0567-F671-PDC patient-derived lung adenocarcinoma cell line growth inhibition [KRAS2]
Conditions: spheroids with HUVEC and MSC; for IC50: curve of first compound; for viability, T/C: stronger effect = lower value; active means viability on the fitted dose curve at most 10% of control; inactive means the rest
Excerpt: Multicellular complex tumor spheroid response to RAS pathway inhibitors in combination with a targeted agents in patient-derived cell lines with oncogenic KRAS variants from multiple cancer types
A high-throughput screen of multi-cell type tumor spheroids was designed to identify active combinations of targeted small molecules and KRAS pathway inhibitors. Complex spheroids include a stromal component modeled by human endothelial cells (HUVEC) and fibroblasts modeled by human mesenchymal stem cells (MSCs). The concentration ranges selected for each drug and investigational agent were based upon clinically achievable concentrations if the clinical Cmax of the agent was known.
Compounds. The drugs and investigational agents: BI-3406 (NSC825286), BAY-293 (NSC824723), batoprotafib (TNO155; NSC825523), sotorasib (AMG 510; NSC818433), MRTX1257 (NSC819558), elimusertib (BAY 1895344; NSC800525), molibresib (GSK525762; NSC774829), temuterkib (LY3214996; NSC803410), venetoclax (NSC766270), alisertib (NSC759677), olaparib (NSC753686), talazoparib (NSC767125), erdafitinib (NSC781556), ipatasertib (NSC767898), cabozantinib (NSC761068), nintedanib (NSC756659), abemaciclib (NSC768073), docetaxel (NSC628503), trametinib (NSC758246), and sapanisertib (NSC764658) were obtained from the National Cancer Institute (NCI) Developmental Therapeutics Program Chemical Repository. The FDA-approved anticancer drug set is available from the Developmental Therapeutics Program. […] The stock solutions were prepared in dimethyl sulfoxide (DMSO, Sigma-Aldrich, St. Louis, MO, cat. D2650) at 800-fold the tested concentration and stored at -70 degrees C prior to their use. All drugs and investigational agents were tested over a range starting from a high concentration at or near the clinical Cmax and decreasing in half-log increments. If the clinical Cmax for an agent had not been determined, the highest concentration tested was 10 microM.
Cell Culture. All cells were maintained in an incubator at 37 degrees C and 5% CO2 with 95% humidity. The PDC lines were cultured according to standard operating procedures established by the NCI PDMR (https://pdmr.cancer.gov/sops/default.htm). Briefly, all PDCs were thawed and cultured in Matrigel-coated flasks prepared with a working solution of 1X Ham's F-12 nutrient mix, without supplementation (Invitrogen, Waltham, MA, cat. 11765054), 100 U/mL penicillin-streptomycin (Invitrogen, cat. 15140122), and 2.5% Matrigel (Corning Inc., Corning, NY, cat. 354248) for the first three passages. All PDCs were cultured in complete DMEM/F-12 media containing advanced DMEM/F-12 (Invitrogen, cat. 12634028), 4.9% defined fetal bovine serum, heat inactivated (HyClone Laboratories Inc., Logan, UT, cat. SH30070.03HI), 389 ng/mL hydrocortisone (Sigma-Aldrich, cat. H4001), 9.7 ng/mL human EGF recombinant protein (Invitrogen, cat. PHG0313), 23.4 microg/mL adenine (Sigma-Aldrich, cat. A2786), 97.3 U/mL penicillin-streptomycin (Invitrogen, cat. 15140122), 1.9 mM L-glutamine (Invitrogen, cat. 25030081), and 9.7 microM Y-27632 dihydrochloride (Tocris Bioscience, Bristol, United Kingdom, cat. 1254). The PDCs were cultured in complete DMEM/F12 media without 9.7 microM Y-27632 dihydrochloride for at least two passages prior to the screen. The established cell line HOP-62 was cultured in RPMI 1640 medium, HEPES (Invitrogen, cat. 22400105) with 10% defined fetal bovine serum (HyClone Laboratories Inc., cat. SH30070.03) and 2 mM L-glutamine (Invitrogen, cat. 25030081). The pooled donor HUVEC were cultured in endothelial cell growth medium 2 (PromoCell, Heidelberg, Germany, cat. C-22011) and the hMSC were cultured in mesenchymal stem cell growth medium 2 (PromoCell, cat. C-28009). For all experiments, HUVEC and hMSC were used at passages </=5, while the malignant cell lines were used at passages </=15. […]
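Further: drug exposure lasted seven days after spheroids formed for three days.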

CC(=O)Nc1cccc(-n2c(=O)n(C3CC3)c(=O)c3c(Nc4ccc(I)cc4F)n(C)c(=O)c(C)c32)c1 + CNCc1ccccc1-c1csc(C(C)Nc2nc(C)nc3cc(OC)c(OC)cc23)c1
0.799 nM: IC50 (second compound 0.316 µM)
inactive: viability, T/C (second compound 0.1 µM, first compound 0.0001 µM) 73.6% | viability, T/C (second compound 0.1 µM, first compound 0.000316 µM) 68.3% | viability, T/C (second compound 0.1 µM, first compound 0.001 µM) 49.1% | viability, T/C (second compound 0.1 µM, first compound 0.00316 µM) 52.5% | viability, T/C (second compound 0.1 µM, first compound 0.01 µM) 29.4% | viability, T/C (second compound 0.1 µM, first compound 0.0316 µM) 11.6% | viability, T/C (second compound 0.316 µM, first compound 0.0001 µM) 65.1% | viability, T/C (second compound 0.316 µM, first compound 0.000316 µM) 54.7% | viability, T/C (second compound 0.316 µM, first compound 0.001 µM) 47.8% | viability, T/C (second compound 0.316 µM, first compound 0.00316 µM) 33.4% | viability, T/C (second compound 0.316 µM, first compound 0.01 µM) 39% | viability, T/C (second compound 0.316 µM, first compound 0.0316 µM) 8.76% | viability, T/C (second compound 1 µM, first compound 0.0001 µM) 61.8% | viability, T/C (second compound 1 µM, first compound 0.000316 µM) 63.2% | viability, T/C (second compound 1 µM, first compound 0.001 µM) 46.9% | viability, T/C (second compound 1 µM, first compound 0.00316 µM) 26.8% | viability, T/C (second compound 1 µM, first compound 0.01 µM) 17.9% | viability, T/C (second compound 1 µM, first compound 0.0316 µM) 8.07%
2.08 nM: IC50 (second compound 0.1 µM)
0.813 nM: IC50 (second compound 1 µM)
< 0.1 nM: IC50 (second compound 3.16 µM) | IC50 (second compound 10 µM)
active: viability, T/C (second compound 3.16 µM, first compound 0.0001 µM) 2.63% | viability, T/C (second compound 3.16 µM, first compound 0.000316 µM) 1.14% | viability, T/C (second compound 3.16 µM, first compound 0.001 µM) 0.22% | viability, T/C (second compound 3.16 µM, first compound 0.00316 µM) 0.57% | viability, T/C (second compound 3.16 µM, first compound 0.01 µM) 0.29% | viability, T/C (second compound 3.16 µM, first compound 0.0316 µM) 0.3% | viability, T/C (second compound 10 µM, first compound 0.0001 µM) 1.49% | viability, T/C (second compound 10 µM, first compound 0.000316 µM) 0.17% | viability, T/C (second compound 10 µM, first compound 0.001 µM) 0.53% | viability, T/C (second compound 10 µM, first compound 0.00316 µM) 0.14% | viability, T/C (second compound 10 µM, first compound 0.01 µM) 0.14% | viability, T/C (second compound 10 µM, first compound 0.0316 µM) 0.24%
